Experiments:
Tissue distribution test = type: in vivo, Crl:CD (SD) rats; conditions: rats, intravenous 0.5 mg/kg, 30 minutes after administration
Procedure: To 8-week-old male Crl:CD (SD) rats, the compound of the present invention was intravenously administered at a dose of 0.5 mg/mL/kg under non-fasted conditions, and 30 minutes after administration, the rats were killed by exsanguination through whole blood collection from the abdominal aorta under anesthesia. Then, the liver and muscles were removed, and a 25% homogenate was prepared with distilled water. The obtained blood was centrifuged, and plasma was then obtained. Then, control plasma and control tissue homogenate were added to the tissue homogenate sample and the plasma sample, respectively, at 1:1, and each sample was measured using LC/MS/MS. The measured area ratio (tissue/plasma) obtained was used as a tissue Kp value. For compound I-12, the value was 6.10 in the liver and 1.29 in muscles, and for compound I-13, the value was 4.06 in the liver and 0.918 in muscles. Therefore, the compound of the present invention has a property of being distributed in the liver and muscles in vivo.

recombinant human ACC2 = recombinant human ACC2 (Homo sapiens (Human), UniProt O00763); experiment: Measurement of inhibitory activity of human ACC2; type: biochemical; conditions: read-out: IC50 hACC2
Sequence of recombinant human ACC2 (O00763 27-2458): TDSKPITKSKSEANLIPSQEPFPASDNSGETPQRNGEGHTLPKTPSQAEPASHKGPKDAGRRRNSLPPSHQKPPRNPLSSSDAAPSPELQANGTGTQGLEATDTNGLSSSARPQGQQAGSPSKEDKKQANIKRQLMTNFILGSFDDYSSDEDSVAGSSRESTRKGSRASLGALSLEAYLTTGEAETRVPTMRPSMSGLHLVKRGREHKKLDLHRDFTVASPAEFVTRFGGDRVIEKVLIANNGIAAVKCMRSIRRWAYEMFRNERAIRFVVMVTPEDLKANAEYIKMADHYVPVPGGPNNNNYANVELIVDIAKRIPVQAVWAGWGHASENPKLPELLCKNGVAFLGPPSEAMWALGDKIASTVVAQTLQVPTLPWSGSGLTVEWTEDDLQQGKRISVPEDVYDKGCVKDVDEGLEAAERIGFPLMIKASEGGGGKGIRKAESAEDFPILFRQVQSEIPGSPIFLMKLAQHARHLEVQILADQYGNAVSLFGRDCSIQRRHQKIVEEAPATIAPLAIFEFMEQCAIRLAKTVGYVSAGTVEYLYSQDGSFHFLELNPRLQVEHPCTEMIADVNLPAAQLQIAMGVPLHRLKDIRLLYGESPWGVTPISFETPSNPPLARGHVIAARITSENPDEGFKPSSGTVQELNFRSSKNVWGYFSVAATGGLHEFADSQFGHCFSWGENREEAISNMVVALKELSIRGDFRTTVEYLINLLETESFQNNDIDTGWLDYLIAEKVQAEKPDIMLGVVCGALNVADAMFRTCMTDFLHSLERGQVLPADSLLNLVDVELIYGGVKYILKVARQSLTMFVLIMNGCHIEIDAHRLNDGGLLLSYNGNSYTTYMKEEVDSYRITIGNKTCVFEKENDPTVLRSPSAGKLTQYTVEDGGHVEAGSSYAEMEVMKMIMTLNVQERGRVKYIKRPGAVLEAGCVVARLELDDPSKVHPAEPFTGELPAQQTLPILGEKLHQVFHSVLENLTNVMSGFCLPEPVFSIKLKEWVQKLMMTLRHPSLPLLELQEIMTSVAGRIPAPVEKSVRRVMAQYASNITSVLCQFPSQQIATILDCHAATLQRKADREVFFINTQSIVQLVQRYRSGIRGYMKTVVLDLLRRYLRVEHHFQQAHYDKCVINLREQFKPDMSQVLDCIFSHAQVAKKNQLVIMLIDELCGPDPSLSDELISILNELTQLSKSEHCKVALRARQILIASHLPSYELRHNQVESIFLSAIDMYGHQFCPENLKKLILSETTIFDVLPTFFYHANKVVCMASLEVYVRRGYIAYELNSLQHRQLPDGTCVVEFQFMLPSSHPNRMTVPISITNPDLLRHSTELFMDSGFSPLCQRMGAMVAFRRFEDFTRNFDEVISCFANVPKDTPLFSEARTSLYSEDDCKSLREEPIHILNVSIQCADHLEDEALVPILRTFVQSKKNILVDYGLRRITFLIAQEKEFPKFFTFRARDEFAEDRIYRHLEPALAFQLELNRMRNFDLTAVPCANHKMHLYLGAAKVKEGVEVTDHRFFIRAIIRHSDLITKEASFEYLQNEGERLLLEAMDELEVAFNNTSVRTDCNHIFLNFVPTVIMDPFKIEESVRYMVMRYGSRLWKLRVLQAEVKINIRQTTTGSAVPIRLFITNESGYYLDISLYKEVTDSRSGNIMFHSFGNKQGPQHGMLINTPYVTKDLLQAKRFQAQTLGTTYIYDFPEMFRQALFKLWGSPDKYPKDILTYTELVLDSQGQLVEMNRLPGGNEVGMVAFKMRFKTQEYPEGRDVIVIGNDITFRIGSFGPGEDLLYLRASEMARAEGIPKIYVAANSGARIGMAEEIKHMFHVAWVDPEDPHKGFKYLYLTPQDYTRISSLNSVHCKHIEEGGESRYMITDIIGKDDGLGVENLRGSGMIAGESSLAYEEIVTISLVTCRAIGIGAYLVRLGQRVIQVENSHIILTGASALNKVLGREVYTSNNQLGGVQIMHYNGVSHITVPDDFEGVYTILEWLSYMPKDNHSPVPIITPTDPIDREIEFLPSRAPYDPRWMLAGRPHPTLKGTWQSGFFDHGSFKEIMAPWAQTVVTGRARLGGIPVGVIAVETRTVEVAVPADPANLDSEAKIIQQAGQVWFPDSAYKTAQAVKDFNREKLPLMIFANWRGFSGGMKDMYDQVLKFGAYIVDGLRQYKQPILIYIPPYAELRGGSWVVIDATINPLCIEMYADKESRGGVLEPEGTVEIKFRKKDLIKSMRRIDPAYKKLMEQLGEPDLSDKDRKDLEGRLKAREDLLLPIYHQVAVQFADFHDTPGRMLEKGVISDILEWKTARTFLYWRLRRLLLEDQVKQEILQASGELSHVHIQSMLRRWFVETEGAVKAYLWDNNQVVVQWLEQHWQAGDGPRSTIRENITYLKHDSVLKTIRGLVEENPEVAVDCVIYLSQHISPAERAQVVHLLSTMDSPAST
Text: A cDNA encoding human ACC2 protein (27 amino acid residues to 2458 amino acid residues from the N-terminus) was cloned from a human kidney cDNA library (Clontech Laboratories, Inc.), a His-tag sequence was introduced at the 5′ end, and then inserted into pFastBac1 (Invitrogen). A recombinant baculovirus was produced in accordance with the protocol for a Bac-to-Bac baculovirus expression system (Invitrogen), and Sf-9 cells were infected therewith to express human ACC2 protein. The recovered cells were crushed, filtered through a filter, and then subjected to Ni affinity chromatography and anion exchange chromatography. Fractions containing human ACC2 protein were collected to obtain recombinant human ACC2.
The recombinant human ACC1 and the recombinant human ACC2 obtained from the above Preparation Examples were preincubated in an assay buffer (50 mM HEPES-KOH (pH 7.4), 10 mM magnesium chloride, 6 to 10 mM potassium citrate, 4 mM reduced glutathione, and 1.5 mg/ml bovine serum albumin) for 1 hour. […] After incubation, the enzymatic reaction was stopped by addition of EDTA, and then the compound was co-crystallized with an α-cyano-4-hydroxy cinnamic acid (CHCA) matrix on a MALDI target plate, and measurement was performed in a reflector negative mode using a matrix-assisted laser desorption ionization-time-of-flight mass spectrometer (MALDI-TOF MS). Deprotonated ions of the substrate acetyl-CoA (AcCoA) and the reaction product malonyl-CoA (MalCoA) were detected, and the intensity of each signal was used to calculate a conversion rate to malonyl-CoA […], i.e., intensity of [MalCoA-H]-/(intensity of [MalCoA-H]-+intensity of [AcCoA-H]-). […] The potassium citrate concentration in the assay buffer, the potassium bicarbonate concentration in the substrate solution, and the incubation time were adjusted within the above concentrations or reaction times for each lot of the enzyme to be used.

recombinant human ACC1 = recombinant human ACC1 (Homo sapiens (Human), UniProt Q13085); experiment: Measurement of inhibitory activity of human ACC1; type: biochemical; conditions: read-out: IC50 hACC1
Text: A cDNA encoding human ACC1 protein (1 amino acid residue to 2346 amino acid residues from the N-terminus) was cloned from a human liver cDNA library (BioChain Institute Inc.), myc tag and His-tag sequences were introduced at the 3′ end, and then inserted into pIEXBAC3 (Novagen). A recombinant baculovirus was produced in accordance with the protocol for FlashBACGOLD (Oxford Expression Technologies Ltd.), and Sf-9 cells were infected therewith to express human ACC1 protein. The recovered cells were crushed, filtered through a filter, and then subjected to Ni affinity chromatography and anion exchange chromatography. Fractions containing human ACC1 protein were collected to obtain recombinant human ACC1.
The recombinant human ACC1 and the recombinant human ACC2 obtained from the above Preparation Examples were preincubated in an assay buffer (50 mM HEPES-KOH (pH 7.4), 10 mM magnesium chloride, 6 to 10 mM potassium citrate, 4 mM reduced glutathione, and 1.5 mg/ml bovine serum albumin) for 1 hour. Then, 5 μL of the pre-incubated enzyme solution and 5 μL of a substrate solution (50 mM HEPES-KOH (pH 7.4), 1 mM ATP, 0.8 mM acetyl-CoA, and 25 to 50 mM potassium bicarbonate) were added to a 384-well microplate into which 0.2 μL of each of solutions of the compound of the present invention (DMSO) had been dispensed, and the mixture was centrifuged and shaken, and then incubated in a wet box at room temperature for 1 to 3 hours. After incubation, the enzymatic reaction was stopped by addition of EDTA, and then the compound was co-crystallized with an α-cyano-4-hydroxy cinnamic acid (CHCA) matrix on a MALDI target plate, and measurement was performed in a reflector negative mode using a matrix-assisted laser desorption ionization-time-of-flight mass spectrometer (MALDI-TOF MS). Deprotonated ions of the substrate acetyl-CoA (AcCoA) and the reaction product malonyl-CoA (MalCoA) were detected, and the intensity of each signal was used to calculate a conversion rate to malonyl-CoA […], i.e., intensity of [MalCoA-H]-/(intensity of [MalCoA-H]-+intensity of [AcCoA-H]-). […] The potassium citrate concentration in the assay buffer, the potassium bicarbonate concentration in the substrate solution, and the incubation time were adjusted within the above concentrations or reaction times for each lot of the enzyme to be used.

[1] = Metabolic stability test (rat); type: in vitro ADME
Procedure: [Worded in the source for another species; this species is reported under the same test.] (§1) Commercially available pooled human liver microsomes were reacted with the compound of the present invention for a given time. A residual rate was calculated by comparison between the reacted sample and the unreacted sample to evaluate a degree at which the compound of the present invention is metabolized in the liver.
(§2) The compound was reacted at 37° C. for 0 minutes or 30 minutes in the presence of 1 mmol/L NADPH in 0.2 mL of a buffer (50 mmol/L Tris-HCl pH 7.4, 150 mmol/L potassium chloride, and 10 mmol/L magnesium chloride) containing 0.5 mg protein/mL of the human liver microsomes (oxidative reaction). After the reaction, 50 μL of the reaction solution was added to 100 μL of a solution of methanol/acetonitrile=1/1 (v/v) and mixed, and the mixture was centrifuged at 3000 rpm for 15 minutes. The compound of the present invention in the centrifuged supernatant was quantified by LC/MS/MS or solid-phase extraction (SPE)/MS. The amount of the compound of the present invention remained after the reaction was calculated with the amount of the compound at 0 minutes of the reaction defined as 100%.

[2] = Metabolic stability test (human); type: in vitro ADME; conditions: human liver microsomes, 37° C., 30 minutes, NADPH
Procedure: as §1, §2

SMILES | tissue Kp value (tissue/plasma), liver (Tissue distribution test) | tissue Kp value (tissue/plasma), muscles (Tissue distribution test) | IC50 (recombinant human ACC2) [nM] | IC50 (recombinant human ACC1) [nM] | Amount of compound remained, Rat [1] [%] | Amount of compound remained, Human [2] [%]
CC(=O)N[C@@H](C)CC[C@H]1OC[C@H](Oc2nc3c(F)cc(OC4CC4)cc3n2C)CO1 [Compound I-13] | 4.06 | 0.918 | 6.6 | 910 | 87 | 95.4
C[C@@H](CO[C@H]1CC[C@H](Oc2nc3c(F)cc(OC4CC4)cc3n2C)CC1)NC(N)=O [Compound I-12] | 6.10 | 1.29 | 5.6 | 6900 | 85.5 | 83.3

— patent publication US12521375B2, “Pharmaceutical composition for treating fatty liver disease” (Shionogi & Co., Ltd., priority 2020, dated 2026)
